Results on two substances are retold here after patent publication US20020106347A1, “Cytokines and their use in treatment and/or prophylaxis of breast cancer” (priority 1995, published 2002).

Test [1] relates to MCF-7 cells. Nature of the test: Proliferation of MCF-7 cells in monolayer (liquid) culture, viable cell count. In kind it is cell-based, human. The note with it: for mean inhibition of cell proliferation: MCF-7, 7 days exposure, LIF 1000 U/ml, IL-6 100 ng/ml, OSM 10 ng/ml, IL-11 100 ng/ml, vs untreated control; for effect on cell proliferation (in words): MCF-7 / MCF-7M, up to 1 week culture. The protocol:
FIGS. 2A, B and C are graphical representations of MCF-7M cells in liquid culture. 10^4 MCF-7M cells were cultured in 500 μl RPMI/10% bovine calf serum (BCS) (v/v) containing the indicated concentration of each of the growth factors (OSM or LIF). After 7 days culture viable cells were counted using a hemacytometer. Cell numbers reported here are the result of one experiment, each performed in triplicate.
FIG. 7 is a graphical representation showing inhibition of proliferation of MCF-7 cells by Oncostatin M (OSM). 10^4 MCF-7 cells were cultured in 500 μl RPMI/10% (v/v) BCS with the indicated concentrations of OSM. At 2, 4 and 6 days, viable cells were counted using a hemacytometer. Results are from 3 experiments, each performed in triplicate.
FIG. 8 is a graphical representation showing that MCF-7 cells are inhibited in a dose-dependent fashion by Oncostatin M (OSM). 10^4 MCF-7 cells were cultured in 500 μl RPMI/10% (v/v) BCS with the indicated concentrations of OSM. After 7 days viable cells were counted, and cell number expressed as a percentage of the corresponding untreated control value.
FIG. 16 is a graphical representation showing inhibition of MCF-7 cells after 7 days in suspension culture. 10^4MCF-7 cells were cultured in 500 μl RPMI/10% (v/v) BCS with the indicated growth factor. After 7 days viable cells were counted using a hemacytometer. Results are from 9 experiments, each performed in triplicate.
(§1) Proliferation of the cell lines was measured in monolayer culture in 24 well Costar cluster plates. Cells were plated at an initial density of 10 000 cells/ml and cultured in 500 μl RPMI-1640 supplemented with 10% (v/v) (v/v) BCS and with each growth factor as indicated (LIF, 1000 U/ml; IL-6, 100 ng/ml; OSM, 10 ng/ml; CNTF, 10 ng/ml; IL-11, 100 ng/ml). These concentrations are maximally active in other systems (Nandurkar et al., 1996; Hilton et al., 1994; Zhang et al., 1994; Tanigawa et al., 1995). After 7 or 10 days at 37° C. in a fully humidified atmosphere containing 10% (v/v) CO2 in air, cells were trypsinised and counted using a haemocytometer and an inverted microscope. Cell viability was assessed using eosin exclusion. Results were expressed as a percentage of the corresponding untreated control value for that experiment.

In the next test the test system is BT-549 cells. The test is described as follows: Proliferation of BT-549 cells in culture, viable cell count. In kind it is cell-based, human. The note with it: for effect on cell proliferation (in words): BT-549. The protocol: FIGS 5A and B are graphical representations of BT-549 cells in liquid culture. 10^4 BT-549 cells were cultured in 500 μl RPMI/10% (v/v) BCS containing the relevant concentration of each of the growth factors (OSM, IL-11 and IL-6). After 10 days, culture viable cells were counted using a hemacytometer. Cell numbers reported here in the two graphs are the results of 1 experiment performed in triplicate.
FIG. 18 is a graphical representation showing BT-549 cells after 10 days in suspension culture. 10^4BT-549 cells were cultured in 500 μl RPMI/10% (v/v) BCS with the indicated growth factor. After 10 days culture viable cells were counted using a hemacytometer. Results are from 6 experiments, each performed in triplicate.
as §1

Another test has as its system MDA-MB-231 cells. Nature of the test: Proliferation of MDA-MB-231 cells in culture, viable cell count. In kind it is cell-based, human. How it is done:
FIG. 19 is a graphical representation showing MDA-MB-231 cells after 7 days in suspension culture. 10^4MDA-MB-231 cells were cultured in 500 μl RPMI/10% (v/v) BCS with the indicated growth factor. After 7 days viable cells were counted using a hemacytometer. Results are from 8 experiments, each performed in triplicate.
as §1

For another test, the system named is MCF-7 cell line. The test is described as follows: Receptor binding of radioiodinated ligand to MCF-7 cells, Scatchard analysis. More on the design: species or system human. The note with it: for Kd: MCF-7, Scatchard analysis, read-out: dissociation constant; for specific binding(cpm)/10^6 cells: MCF-7M, 125I-ligand, room temperature 60 min. The protocol:
(§2) FIG. 20 is a graphical representation showing Scatchard analyses of the saturation isotherms of LIF and OSM binding to breast cancer cell lines. Cells were incubated with various concentrations of labelled or unlabelled ligand in the presence or absence of a 10-100 fold excess of unlabelled ligand. After 18 hr on ice, bound and free ligand were separated by centrifugation through bovine calf serum. Bound and free ^125I-ligand was quantitated in a γ-counter and the data was depicted as a Scatchard transformation. Data was normalised for cell number and is shown as binding to 10^6 cells. A) Saturation isotherm of LIF binding to the MCF-7 cell line. […] B) Saturation isotherm of OSM binding to the MDA-MB-231 cell line.
(§3) Receptor binding assays were performed using radioiodinated LIF (^125I-LIF) and OSM (^125I-OSM). The radioiodination of LIF and OSM and binding assays were essentially performed as previously described (Hilton et al., 1991; Hilton and Nicola, 1992). Briefly, 50 μl aliquots containing 1×10^7 cells, suspended in RPMI-1640 medium containing 10% (v/v) BCS, were placed in Falcon tubes with 40 μl of the respective radioiodinated ligand at 1×10^5 cpm per 40 μl, with or without greater than a 40-fold excess of unlabelled ligand. Incubation was carried out at room temperature for 60 min and cells were resuspended and layered over 180 μl of (v/v) BCS. Cell associated and free radioiodinated ligand were separated by centrifugation. The pellet and supernatant were subsequently counted in a γ-counter. Specific binding was estimated by subtraction of non specific binding from binding with ^125I-ligand (total binding). Number of cell surface receptors and dissociation constant were calculated by Scatchard analysis.

In another test the test system is HBL-100 cell line. The test is described as follows: Receptor binding of radioiodinated ligand to HBL-100 cells, Scatchard analysis. More on the design: species or system human. The note with it: for specific binding(cpm)/10^6 cells: HBL-100, 125I-ligand, room temperature 60 min. The protocol:
as §2, §3

Test [2] has as its system MCF-7 cells. Nature of the test: Cell morphology after exposure to growth factor. In kind it is cell-based, human. Particulars: MCF-7 / MCF-7M, 6-14 days in growth factor. The source says:
FIG. 4 is a photographic representation showing morphology of growth factor stimulated MCF-7M cells. Following 1 week in suspension culture containing the various growth factors, MCF-7M cells were cytospun onto slides and subsequently stained with Giemsa.
FIG. 11 is a photographic representation showing cell morphology after exposure to OSM. MCF-7 cells from control cultures and appears of cells after 7 days in OSM. A) Control cells, 10× magnification. B) OSM treated cells, 10× magnification. C) OSM treated cells, 40× magnification. D) OSM treated cells, 100× magnification.
FIG. 15 is a photographic representation showing cell morphology after exposure to OSM. MCF-7 cells from control cultures (Panel A) and appearance of cells after culture for 14 days in OSM (10 ng/ml) (Panel B). MDA-MB-231 cells from control cultures (Panel C) and appearance of cells after culture for 7 days in OSM (Panel D).

Entries after “also recorded” stand apart in the source; their conditions may differ.

In the case of Leukemia Inhibitory Factor [LIF], in the test with MCF-7 cells [1], the “mean inhibition of cell proliferation” value was found to be 37%. Also, the “effect on cell proliferation (in words)” value in the test on MCF-7 cells [1] was “induced inhibition”; with BT-549 cells, “failure of BT-549 cells and MDA-MB-231 cells to respond”. In addition, the “effect on cellular proliferation (in words)” value in the test on MDA-MB-231 cells (MDA-MB-231) is given as “did not result in significant effects on cellular proliferation”. In addition, the Kd in the test with MCF-7 cell line came out at 0.0146 nM; in the test on HBL-100 cell line (HBL-100, Scatchard analysis, read-out: dissociation constant) it was 0.00749 nM. Moreover, the “specific binding(cpm)/10^6 cells” value in the test with MCF-7 cell line is recorded as 350 +/− 100 cpm; in the test with HBL-100 cell line, 590 +/− 30 cpm. Further, the “cell morphology (in words)” value in the test on MCF-7 cells [2] is on record as “appeared larger than the control cells”.

For oncostatin M [OSM], in the test with MCF-7 cells [1] (MCF-7, 7 days exposure to OSM, 9 experiments), the “inhibition of cell proliferation, up to (maximum observed)” value was “up to 94%”. In addition, in the test on MCF-7 cells [1], the “mean inhibition of cell proliferation” value worked out at 85% and the “effect on cell proliferation (in words)” value is “inhibition of cell proliferation; also recorded: inhibition of cellular proliferation”. The “effect on cell proliferation (in words)” value in the test on BT-549 cells is “inhibition of cell proliferation”. Moreover, in the test with BT-549 cells (BT-549, 7 days), the mean growth inhibition came out at 60%. For the same substance, in the test on BT-549 cells (BT-549, 10 days), the “growth inhibition, up to (maximum observed)” value is “up to 80%” and the mean growth inhibition was determined as 60%. Besides, the “inhibition of proliferation, up to (maximum observed)” value in the test on MDA-MB-231 cells (MDA-MB-231, 7 days) is “up to 65%”. The “mean inhibition of proliferation” value in the test on MDA-MB-231 cells (MDA-MB-231, 7 days, 8 experiments) was found to be 54%. Moreover, in the test with MCF-7 cell line, the Kd was 2 nM and the “specific binding(cpm)/10^6 cells” value is 1250 +/− 90 cpm. Further, in the test on HBL-100 cell line, the “specific binding(cpm)/10^6 cells” value is recorded as 140 +/− 10 cpm. In addition, the “reduced binding of radiolabelled ligand compared with the other cell lines” value with HBL-100 cell line (HBL-100 vs T-47D, MDA-MB-231, MCF-7) is reported as “approximately 10 fold”. Further, in the test with MCF-7 cells [2], the “cell morphology (in words)” value is “more abundant cytoplasm and vacuolation; also recorded: more fibroblastic phenotype; also recorded: larger and more vacuolated than control cells”.
